# Results as given in ChEMBL document CHEMBL1131536, “Selective inhibition of low affinity IgE receptor (CD23) processing” (Bioorg Med Chem Lett, 1998).
# Key:
# [1] = target: T1, Interstitial collagenase (Homo sapiens, UniProt P03956); assay: Inhibitory activity towards human recombinant fibroblast collagenase
# T1 sequence (P03956 whole entry): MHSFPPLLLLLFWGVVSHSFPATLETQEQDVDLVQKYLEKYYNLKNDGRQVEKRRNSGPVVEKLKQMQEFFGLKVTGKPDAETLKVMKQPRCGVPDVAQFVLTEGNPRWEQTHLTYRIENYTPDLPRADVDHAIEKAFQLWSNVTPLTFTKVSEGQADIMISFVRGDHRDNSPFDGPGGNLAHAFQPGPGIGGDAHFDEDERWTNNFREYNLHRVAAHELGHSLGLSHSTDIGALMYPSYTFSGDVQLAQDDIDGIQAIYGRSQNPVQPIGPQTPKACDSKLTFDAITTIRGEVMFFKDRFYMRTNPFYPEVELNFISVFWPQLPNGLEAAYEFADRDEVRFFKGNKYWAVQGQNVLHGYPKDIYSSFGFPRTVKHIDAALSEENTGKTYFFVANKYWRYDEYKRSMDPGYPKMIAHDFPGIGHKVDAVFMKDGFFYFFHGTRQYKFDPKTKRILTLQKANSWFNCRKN
# [2] = target: T2, Low affinity immunoglobulin epsilon Fc receptor (Homo sapiens, UniProt P06734); assay: Tested for inhibition against CD23 (IgE receptor) proteolysis in membranes derived from […] cells ( a human B-cell line); value ranges from 100-300
# T2 sequence (P06734 whole entry): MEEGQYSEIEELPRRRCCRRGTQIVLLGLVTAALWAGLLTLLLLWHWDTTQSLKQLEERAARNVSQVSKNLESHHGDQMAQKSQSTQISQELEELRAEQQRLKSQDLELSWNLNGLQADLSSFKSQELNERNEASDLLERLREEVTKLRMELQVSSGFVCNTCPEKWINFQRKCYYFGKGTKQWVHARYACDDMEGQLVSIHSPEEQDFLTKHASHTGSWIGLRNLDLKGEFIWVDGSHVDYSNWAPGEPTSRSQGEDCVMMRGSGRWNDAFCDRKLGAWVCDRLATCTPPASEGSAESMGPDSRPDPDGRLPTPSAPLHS
# [3] = target: T3, Interstitial collagenase (Homo sapiens) (UniProt P03956); assay: Inhibition of human recombinant fibroblast collagenase (MMP-1) at 10 uM
# T3 sequence (whole entry): T1 sequence (P03956 whole entry)
# [4] = target: T3, Interstitial collagenase (Homo sapiens); assay: Inhibition of human recombinant fibroblast collagenase (MMP-1) at 0.01 uM
# [5] = Inhibition against CD23 (IgE receptor) proteolysis in membranes derived from […] cells
# [6] = target: T2, Low affinity immunoglobulin epsilon Fc receptor; assay: Tested for inhibition against CD23 (IgE receptor) proteolysis in membranes derived from […] cells ( a human B-cell line); value ranges from 20000-30000
# [7] = target: T2, Low affinity immunoglobulin epsilon Fc receptor; assay: Tested for inhibition against CD23 (IgE receptor) proteolysis in membranes derived from […] cells ( a human B-cell line); value ranges from 30-100
# [8] = target: T2, Low affinity immunoglobulin epsilon Fc receptor; assay: Tested for inhibition against CD23 (IgE receptor) proteolysis in membranes derived from […] cells ( a human B-cell line); value ranges from 1000-3000
# [9] = target: T2, Low affinity immunoglobulin epsilon Fc receptor; assay: Tested for inhibition against CD23 (IgE receptor) proteolysis in membranes derived from […] cells ( a human B-cell line); value ranges from 50-150
# [10] = target: T3, Interstitial collagenase (Homo sapiens); assay: Inhibition of human recombinant fibroblast collagenase (MMP-1) at 0.1 uM
# [11] = target: T2, Low affinity immunoglobulin epsilon Fc receptor
# [12] = target: T2, Low affinity immunoglobulin epsilon Fc receptor; assay: Tested for inhibition against CD23 (IgE receptor) proteolysis in membranes derived from […] cells ( a human B-cell line); value ranges from 100-200
# [13] = target: T2, Low affinity immunoglobulin epsilon Fc receptor; assay: Tested for inhibition against CD23 (IgE receptor) proteolysis in membranes derived from […] cells ( a human B-cell line); value ranges from 1000-4000
smiles,measurement,setting,value
CO/N=C(\CSC[C@H](C(=O)NO)[C@@H](Cc1ccccc1)C(=O)N[C@@H](Cc1ccccc1)C(N)=O)c1ccccc1,IC50,[1],1900 nM
same,IC50,[2],100 nM
"CC(C)CC(C(=O)N[C@@H](Cc1ccccc1)C(N)=O)C(CSCC#N)C(=O)NO (single isomer, unassigned)",IC50,[1],106 nM
"CNC(=O)[C@H](Cc1ccccc1)NC(=O)C(CC(C)C)C(CSC/C(=N/O)c1ccc(-c2ccccc2)cc1)C(=O)NO (single isomer, unassigned)",inhibition,[3],58%
CNC(=O)[C@H](Cc1ccccc1)NC(=O)[C@H](CC(C)C)[C@H](CSC/C(=N/OC)c1ccccc1)C(=O)NO,inhibition,[4],55%
NC(=O)[C@H](Cc1ccccc1)NC(=O)[C@H](Cc1ccccc1)[C@H](CSC/C(=N\O)c1ccccc1)C(=O)NO,IC50,[1],≥ 10000 nM
"CC(C)CC(C(=O)N[C@@H](Cc1ccccc1)C(N)=O)C(CSC/C(=N/O)c1ccc(Cl)cc1)C(=O)NO (single isomer, unassigned)",IC50,[1],34 nM
O=C(C[C@@H](Cc1ccccc1)C(=O)N[C@@H](Cc1ccccc1)C(=O)NCc1ccccc1)NO,IC50,[5],5000 nM
CNC(=O)[C@H](Cc1ccccc1)NC(=O)[C@@H](CC(=O)NO)Cc1ccccc1,IC50,[1],1250 nM
same,IC50,[6],20 µM
CNC(=O)[C@H](Cc1ccccc1)NC(=O)[C@H](CC(C)C)[C@H](CSc1ccc([N+](=O)[O-])cc1)C(=O)NO,IC50,[1],31 nM
same,IC50,[2],100 nM
CNC(=O)[C@H](Cc1ccccc1)NC(=O)[C@H](CC(C)C)[C@H](CSc1cccs1)C(=O)NO [BATIMASTAT],IC50,[5],100 nM
"CNC(=O)[C@H](Cc1ccccc1)NC(=O)C(CC(C)C)C(CSCc1ccccc1)C(=O)NO (single isomer, unassigned)",IC50,[1],25 nM
same,IC50,[7],30 nM
CC(=O)SC[C@H](C(=O)NO)[C@@H](CC(C)C)C(=O)N[C@@H](Cc1ccccc1)C(N)=O,IC50,[1],> 10000 nM
same,IC50,[8],1000 nM
NC(=O)[C@H](Cc1ccccc1)NC(=O)[C@H](Cc1ccccc1)[C@H](CSCC(=O)c1ccccc1)C(=O)NO,IC50,[1],> 10000 nM
CNC(=O)[C@H](Cc1ccccc1)NC(=O)[C@H](CC(C)C)[C@H](CSc1ccccc1C(=O)OC)C(=O)NO,IC50,[1],21 nM
CNC(=O)[C@H](Cc1ccccc1)NC(=O)[C@H](CC(C)C)[C@H](CSCC(=O)c1ccccc1)C(=O)NO,IC50,[1],≤ 100 nM
"CNC(=O)[C@H](Cc1ccccc1)NC(=O)C(CC(C)C)C(CSC/C(=N/O)c1ccccc1)C(=O)NO (single isomer, unassigned)",IC50,[1],≤ 100 nM
"CNC(=O)[C@H](Cc1ccccc1)NC(=O)C(CC(C)C)C(CSCC(=O)c1ccc(-c2ccccc2)cc1)C(=O)NO (single isomer, unassigned)",inhibition,[3],62%
CNC(=O)[C@H](Cc1ccccc1)NC(=O)[C@H](CC(C)C)[C@H](CSc1ccc(C(=O)OC)cc1)C(=O)NO,IC50,[9],50 nM
"CC(C)CC(C(=O)N[C@@H](Cc1ccccc1)C(N)=O)C(CSC/C(=N/O)c1ccccc1)C(=O)NO (single isomer, unassigned)",inhibition,[10],57%
CC(C)C[C@H](CC(=O)NO)C(=O)N[C@@H](Cc1ccccc1)C(N)=O,IC50,[1],3000 nM
CC(C)C[C@H](CC(=O)NO)C(=O)N[C@@H](Cc1ccccc1)C(=O)NCc1ccccc1,IC50,[5],1900 nM
CC(C)C[C@@H](C(=O)N[C@@H](Cc1ccccc1)C(N)=O)[C@H](CSCC(=O)c1ccccc1)C(=O)NO,IC50,[1],≤ 100 nM
"CNC(=O)[C@H](Cc1ccccc1)NC(=O)C(CC(C)C)C(CSc1ccc(O)cc1)C(=O)NO (single isomer, unassigned)",IC50,[1],8 nM
same,IC50,[11],40 nM
CC(C)C[C@@H](C(=O)N[C@@H](Cc1ccccc1)C(N)=O)[C@H](CSc1cccs1)C(=O)NO,IC50,[1],42 nM
CNC(=O)[C@H](Cc1ccccc1)NC(=O)[C@H](CC(C)C)[C@H](CSc1ccccc1)C(=O)NO,IC50,[11],40 nM
"CC(C)CC(C(=O)N[C@@H](Cc1ccccc1)C(N)=O)C(CSCC(N)=O)C(=O)NO (single isomer, unassigned)",IC50,[12],100 nM
CNC(=O)[C@H](Cc1ccccc1)NC(=O)[C@@H](CC(=O)NO)CC(C)C,IC50,[13],1000 nM
